Results on 12 molecules are retold here after patent US20240408169A1 (priority 2023, published 2024).

*1 amine or outer side, *2 acyl side, *3 side chain or, on linkers, in order; H or OH if unused. Where a SMILES comes first, the peptide text is derived from it. Bridges are numbered along the chain shown (N, C = ends). [ ]: non-standard residue; d: D form. The star is where a group is joined. X128 = CC(C)C(=O)N1C2C=C(c3ccc(F)cc3C[C@@H](C(=O)[*:2])N(C)[*:1])CC1COC2; X150 = CC(C)C(=O)N1C2C=C(c3ccc(F)cc3C[C@@H](C(=O)[*:2])N(C)[*:1])CC1CC2; NMePhe(5-Cl,2-O(2-Pym)) = CN[C@@H](Cc1cc(Cl)ccc1Oc1ncccn1)C(=O)O; NMehhhLys(Me) = CN([C@@H](CCCCCCCN(C)[*:3])C(=O)[*:2])[*:1]; X207 = CN([C@@H](Cc1cc(F)ccc1-c1cn(C)cn1)C(=O)[*:2])[*:1]; X44 = Cc1nnc(-c2ccc(Cl)cc2C[C@@H](C(=O)[*:2])N(C)[*:1])o1; NMe(hhhLys) = CN([C@@H](CCCCCCCN[*:3])C(=O)[*:2])[*:1]; Cyclobutanecarbonyl(1-CF3) = O=C(C1(C(F)(F)F)CCC1)*; cBuCO(3,3-F2-1-CF3) = O=C(C1(C(F)(F)F)CC(F)(F)C1)*; Pro(trans-4-F) = O=C(O)[C@@H]1C[C@@H](F)CN1; Gly(cPr) = N[C@H](C(=O)O)C1CC1

The target of one assay is T1, CyclinA2/CDK2 (Homo sapiens, UniProt P20248).
T1 construct: purchased CRELUX Protein Services
Description: Fluorescence Polarization (FP) competitive binding assay, Cyclin A2/Cdk2.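 Note: plates equilibrated two hours at room temperature before polarization reading, IC50 fitted from eight-concentration compound titration curves.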 The following applies: 8 nM Cyclin A2/Cdk2, 2 nM FAM probe; average of 2-3 independent experiments; read-out: Cyclin A FP IC50. A general note: Fluorescence polarisation rises when a labelled molecule tumbles more slowly, as on binding a larger partner.

Another assay deals with T2, CyclinB1/CDK1 (Homo sapiens, UniProt P14635).
T2 construct: purchased Eurofins, discovery 14-450
Description: Fluorescence Polarization (FP) competitive binding assay, Cyclin B1/Cdk1.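 Note: fluorescence polarization read after equilibration at room temperature, with IC50 taken from serially diluted dose-response curves.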 The following applies: 10 nM Cyclin B1/Cdk1, 2 nM FAM probe; average of 2-3 independent experiments; read-out: Cyclin B FP IC50.

In the next assay the target is T3, CyclinE1/CDK2 (Homo sapiens, UniProt P24864).
T3 construct: purchased Eurofins, discovery 14-475
Description: Fluorescence Polarization (FP) competitive binding assay, Cyclin E1/Cdk2.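 Note: readings taken after two-hour equilibration at room temperature in HEPES buffer with NaCl, DTT, NP-40 and BSA, IC50 fitted from eight-concentration serial dilution series.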 The following applies: 10 nM Cyclin E1/Cdk2, 2 nM FAM probe; average of 2-3 independent experiments; read-out: Cyclin E FP IC50.

The next assay relates to NCI-H1048 cells. Description: MTT proliferation assay, NCI-H1048.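 Note: Dose-response in 96-well plates over 8 or 10 concentration points, with exposure spanning 3-4 cell doublings.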 The following applies: 5 days compound exposure, 1:3 serial dilution starting at 10 μM. It is filed as cell-based.
For a further assay, the system named is OVCAR3 cells. In words: MTT proliferation assay, OVCAR3.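 Note: compound given as an 8- or 10-point series, one day after plating, with exposure covering roughly 3-4 cell doublings.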 It is filed as cell-based. The following applies: 5 days compound exposure, 1:3 serial dilution starting at 10 μM. On the technique in general: Formazan colour is commonly taken as a measure of viable cells.

In general, IC50 refers to the concentration needed to halve the response being measured. The GI50 is the concentration giving 50% growth inhibition. A lower GI50 goes with more potent growth inhibition. Consider `CC(C)C[C@@H]1NC(=O)[C@@H](N(C)C(=O)[C@@H](NC(=O)[C@@H]2C[C@@H](F)CN2C(=O)C2(C(F)(F)F)CC(F)(F)C2)C2CC2)CCCCCCCN(C)C(=O)[C@H](Cc2cc(F)ccc2C2=CC3CCC(C2)N3C(=O)C(C)C)N(C)C1=O` (stereo partly drawn) [Example 150] ({cBuCO(3,3-F2-1-CF3)}-[Pro(trans-4-F)][Gly(cPr)][NMehhhLys(Me)]L[X150]; lactam 3-C), for which the IC50 turned out to be 20 nM on CyclinA2/CDK2, 20 nM on CyclinB1/CDK1 and 210 nM at CyclinE1/CDK2. The results for the GI50 with NCI-H1048 cells and in the assay on OVCAR3 cells were 20 nM and 40 nM, respectively.
Consider `CC(C)C[C@@H]1NC(=O)[C@@H](N(C)C(=O)[C@@H](NC(=O)[C@@H]2C[C@@H](F)CN2C(=O)C2(C(F)(F)F)CC(F)(F)C2)C2CC2)CCCCCCCN(C)C(=O)[C@H](Cc2cc(F)ccc2C2=CC3COCC(C2)N3C(=O)C(C)C)N(C)C1=O` (stereo partly drawn) [Example 151] ({cBuCO(3,3-F2-1-CF3)}-[Pro(trans-4-F)][Gly(cPr)][NMehhhLys(Me)]L[X128]; lactam 3-C), for which the IC50 at CyclinA2/CDK2 was found to be 20 nM; on CyclinB1/CDK1 it was 20 nM; on CyclinE1/CDK2 it was 220 nM. Also, the GI50 in the assay with NCI-H1048 cells and with OVCAR3 cells was 10 nM throughout.
In the case of `CC(C)C[C@@H]1NC(=O)[C@@H](N(C)C(=O)[C@@H](NC(=O)[C@@H]2C[C@@H](F)CN2C(=O)C2(C(F)(F)F)CC(F)(F)C2)C2CC2)CC=CCCCCNC(=O)[C@H](Cc2cc(Cl)ccc2Oc2ncccn2)N(C)C1=O` [Example 152], the IC50 at CyclinA2/CDK2 was found to be 1020 nM; on CyclinB1/CDK1, 20 nM; at CyclinE1/CDK2, 1900 nM. Besides, the GI50 worked out at 500 nM in the assay with NCI-H1048 cells and 450 nM with OVCAR3 cells.
In the case of `CC(C)C[C@@H]1NC(=O)[C@@H](N(C)C(=O)[C@@H](NC(=O)[C@@H]2C[C@@H](F)CN2C(=O)C2(C(F)(F)F)CC(F)(F)C2)C2CC2)CC=CCCCCN(C)C(=O)[C@H](Cc2cc(Cl)ccc2Oc2ncccn2)N(C)C1=O` [Example 153], the figures for the IC50 at CyclinA2/CDK2, at CyclinB1/CDK1 and on CyclinE1/CDK2 were 470 nM, 20 nM and 1000 nM, respectively. Besides, the GI50 in the assay on NCI-H1048 cells was determined as 110 nM; in the assay on OVCAR3 cells it was 140 nM.
`CC(C)C[C@@H]1NC(=O)[C@@H](N(C)C(=O)[C@@H](NC(=O)[C@@H]2C[C@@H](F)CN2C(=O)C2(C(F)(F)F)CC(F)(F)C2)C2CC2)CCCCCCCNC(=O)[C@H](Cc2cc(Cl)ccc2Oc2ncccn2)N(C)C1=O` [Example 154] ({cBuCO(3,3-F2-1-CF3)}-[Pro(trans-4-F)][Gly(cPr)][NMe(hhhLys)]L[NMePhe(5-Cl,2-O(2-Pym))]; lactam 3-C): the IC50 on CyclinA2/CDK2 stood at 150 nM; at CyclinB1/CDK1, 20 nM; at CyclinE1/CDK2, 480 nM. Moreover, the GI50 in the assay on NCI-H1048 cells and with OVCAR3 cells was 20 nM in each case.
Take `CC(C)C[C@@H]1NC(=O)[C@@H](N(C)C(=O)[C@@H](NC(=O)[C@@H]2C[C@@H](F)CN2C(=O)C2(C(F)(F)F)CC(F)(F)C2)C2CC2)CCCCCCCN(C)C(=O)[C@H](Cc2cc(Cl)ccc2Oc2ncccn2)N(C)C1=O` [Example 155] ({cBuCO(3,3-F2-1-CF3)}-[Pro(trans-4-F)][Gly(cPr)][NMehhhLys(Me)]L[NMePhe(5-Cl,2-O(2-Pym))]; lactam 3-C): the IC50 was 100 nM at CyclinA2/CDK2, 20 nM on CyclinB1/CDK1 and 410 nM at CyclinE1/CDK2. Moreover, the figures for the GI50 in the assay on NCI-H1048 cells and in the assay on OVCAR3 cells were 10 nM and 20 nM, respectively.
On to `CC(C)C[C@@H]1NC(=O)[C@@H](N(C)C(=O)[C@@H](NC(=O)[C@@H]2C[C@@H](F)CN2C(=O)C2(C(F)(F)F)CCC2)C2CC2)CC=CCCCCN(C)C(=O)[C@H](Cc2cc(Cl)ccc2Oc2ncccn2)N(C)C1=O` [Example 157], for which the IC50 at CyclinA2/CDK2 was determined as 360 nM; at CyclinB1/CDK1, 20 nM; on CyclinE1/CDK2, 410 nM. Besides, the concentration for 50% growth inhibition (GI50) amounted to 80 nM with NCI-H1048 cells and 140 nM with OVCAR3 cells.
In the case of `CC(C)C[C@@H]1NC(=O)[C@@H](N(C)C(=O)[C@@H](NC(=O)[C@@H]2C[C@@H](F)CN2C(=O)C2(C(F)(F)F)CCC2)C2CC2)CCCCCCCNC(=O)[C@H](Cc2cc(Cl)ccc2Oc2ncccn2)N(C)C1=O` [Example 158] ({Cyclobutanecarbonyl(1-CF3)}-[Pro(trans-4-F)][Gly(cPr)][NMe(hhhLys)]L[NMePhe(5-Cl,2-O(2-Pym))]; lactam 3-C), the IC50 on CyclinA2/CDK2 turned out to be 100 nM; on CyclinB1/CDK1 it was 20 nM; on CyclinE1/CDK2 it was 210 nM. The GI50 in the assay with NCI-H1048 cells and with OVCAR3 cells was 20 nM each time.
Regarding `Cc1nnc(-c2ccc(Cl)cc2C[C@H]2C(=O)NCCCCCCC[C@H](N(C)C(=O)[C@@H](NC(=O)[C@@H]3C[C@@H](F)CN3C(=O)C3(C(F)(F)F)CCC3)C3CC3)C(=O)N[C@@H](CC(C)C)C(=O)N2C)o1` [Example 161] ({Cyclobutanecarbonyl(1-CF3)}-[Pro(trans-4-F)][Gly(cPr)][NMe(hhhLys)]L[X44]; lactam 3-C), the IC50 at CyclinA2/CDK2 amounted to 20 nM; at CyclinB1/CDK1 it was 20 nM; at CyclinE1/CDK2, 120 nM. Moreover, the GI50 in the assay on NCI-H1048 cells and in the assay with OVCAR3 cells was 20 nM in each case.
Take `Cc1nnc(-c2ccc(Cl)cc2C[C@H]2C(=O)N(C)CCCCCCC[C@H](N(C)C(=O)[C@@H](NC(=O)[C@@H]3C[C@@H](F)CN3C(=O)C3(C(F)(F)F)CC(F)(F)C3)C3CC3)C(=O)N[C@@H](CC(C)C)C(=O)N2C)o1` [Example 162] ({cBuCO(3,3-F2-1-CF3)}-[Pro(trans-4-F)][Gly(cPr)][NMehhhLys(Me)]L[X44]; lactam 3-C): the figures for the IC50 at CyclinA2/CDK2, on CyclinB1/CDK1 and at CyclinE1/CDK2 were 20 nM, 20 nM and 220 nM, respectively. Further, the concentration for 50% growth inhibition (GI50) with NCI-H1048 cells and in the assay with OVCAR3 cells was 10 nM throughout.
Take `Cc1nnc(-c2ccc(Cl)cc2C[C@H]2C(=O)N(C)CCCCCCC[C@H](N(C)C(=O)[C@@H](NC(=O)[C@@H]3C[C@@H](F)CN3C(=O)C3(C(F)(F)F)CCC3)C3CC3)C(=O)N[C@@H](CC(C)C)C(=O)N2C)o1` [Example 163] ({Cyclobutanecarbonyl(1-CF3)}-[Pro(trans-4-F)][Gly(cPr)][NMehhhLys(Me)]L[X44]; lactam 3-C): the IC50 on CyclinA2/CDK2 came out at 20 nM; on CyclinB1/CDK1, 20 nM; on CyclinE1/CDK2, 100 nM. Besides, the GI50 in the assay on NCI-H1048 cells and in the assay on OVCAR3 cells was 10 nM each time.
In the case of `CC(C)C[C@@H]1NC(=O)[C@@H](N(C)C(=O)[C@@H](NC(=O)[C@@H]2C[C@@H](F)CN2C(=O)C2(C(F)(F)F)CC(F)(F)C2)C2CC2)CCCCCCCN(C)C(=O)[C@H](Cc2cc(F)ccc2-c2cn(C)cn2)N(C)C1=O` [Example 164] ({cBuCO(3,3-F2-1-CF3)}-[Pro(trans-4-F)][Gly(cPr)][NMehhhLys(Me)]L[X207]; lactam 3-C), the figures for the IC50 at CyclinA2/CDK2, at CyclinB1/CDK1 and on CyclinE1/CDK2 were 70 nM, 20 nM and 930 nM, respectively. The GI50 with NCI-H1048 cells and in the assay on OVCAR3 cells was 30 nM each time.
